# Laboratory results: patent US20210267944A1 (BioXcel Therapeutics, Inc., priority 2018, published 2021)
# Structures can show the parent of a compound that is named as a salt. Where two headings read alike, the source gives them in different places.
# Conditions: for Diastolic blood pressure Max / Diastolic blood pressure Mean ± SD / Diastolic blood pressure Median / Diastolic blood pressure Min / Pulse rate, Max / Pulse rate, Mean ± SD / Pulse rate, Median / Pulse rate, Min / Respiration rate, Max / Respiration rate, Mean ± SD / Respiration rate, Median / Respiration rate, Min / Systolic blood pressure, Max / Systolic blood pressure, Mean ± SD / Systolic blood pressure, Median / Systolic blood pressure, Min: SDAT patients, IV infusion
# Method: Study drug IV infusion was to be stopped at any time if any of the following occurred: • There was more than 20 mm Hg decrease in systolic or diastolic blood pressure. • There was an isolated drop in Systolic BP<100 mm of Hg. • There was an isolated drop Diastolic BP<60 mm of Hg. • There was a decrease in heart rate of 20 beats per minute or a drop below 50 beats per minute. • Attainment of a RASS of −1 at the end of each 30 minutes infusion period.
# Return to baseline parameters was defined as BP falling within 15 mm of Hg of baseline reading prior to drug administration or HR falling within 10 beats per minute of baseline reading prior to drug administration.
smiles,measurement,setting,value
Cc1cccc([C@H](C)c2cnc[nH]2)c1C [dexmedetomidine hydrochloride],all the vital signs values,SDAT,within clinically acceptable limits
same,Diastolic blood pressure Max,00:00 Hr,90 mm of Hg
same,Diastolic blood pressure Mean ± SD,00:00 Hr,80.9 ± 9.87 mm of Hg
same,Diastolic blood pressure Median,00:00 Hr,83.5 mm of Hg
same,Diastolic blood pressure Min,00:00 Hr,64 mm of Hg
same,"Pulse rate, Max",00:00 Hr,91 beats/min
same,"Pulse rate, Mean ± SD",00:00 Hr,79.0 ± 9.02 beats/min
same,"Pulse rate, Median",00:00 Hr,78.0 beats/min
same,"Pulse rate, Min",00:00 Hr,64 beats/min
same,"Respiration rate, Max",00:00 Hr,26 breaths/min
same,"Respiration rate, Mean ± SD",00:00 Hr,19.6 ± 2.50 breaths/min
same,"Respiration rate, Median",00:00 Hr,19.5 breaths/min
same,"Respiration rate, Min",00:00 Hr,17 breaths/min
same,"Systolic blood pressure, Max",00:00 Hr,169 mm of Hg
same,"Systolic blood pressure, Mean ± SD",00:00 Hr,143.2 ± 13.60 mm of Hg
same,"Systolic blood pressure, Median",00:00 Hr,140.0 mm of Hg
same,"Systolic blood pressure, Min",00:00 Hr,125 mm of Hg
same,Diastolic blood pressure Max,00:15 Hr,92 mm of Hg
same,Diastolic blood pressure Mean ± SD,00:15 Hr,82.1 ± 8.46 mm of Hg
same,Diastolic blood pressure Median,00:15 Hr,84.0 mm of Hg
same,Diastolic blood pressure Min,00:15 Hr,70 mm of Hg
same,"Pulse rate, Max",00:15 Hr,89 beats/min
same,"Pulse rate, Mean ± SD",00:15 Hr,78.2 ± 9.85 beats/min
same,"Pulse rate, Median",00:15 Hr,80.0 beats/min
same,"Pulse rate, Min",00:15 Hr,57 beats/min
same,"Respiration rate, Max",00:15 Hr,26 breaths/min
same,"Respiration rate, Mean ± SD",00:15 Hr,18.3 ± 3.20 breaths/min
same,"Respiration rate, Median",00:15 Hr,17.0 breaths/min
same,"Respiration rate, Min",00:15 Hr,15 breaths/min
same,"Systolic blood pressure, Max",00:15 Hr,155 mm of Hg
same,"Systolic blood pressure, Mean ± SD",00:15 Hr,138.0 ± 10.35 mm of Hg
same,"Systolic blood pressure, Median",00:15 Hr,134.5 mm of Hg
same,"Systolic blood pressure, Min",00:15 Hr,122 mm of Hg
same,Diastolic blood pressure Max,00:30 Hr,89 mm of Hg
same,Diastolic blood pressure Mean ± SD,00:30 Hr,80.3 ± 7.99 mm of Hg
same,Diastolic blood pressure Median,00:30 Hr,82.5 mm of Hg
same,Diastolic blood pressure Min,00:30 Hr,66 mm of Hg
same,"Pulse rate, Max",00:30 Hr,94 beats/min
same,"Pulse rate, Mean ± SD",00:30 Hr,80.5 ± 10.43 beats/min
same,"Pulse rate, Median",00:30 Hr,76.5 beats/min
same,"Pulse rate, Min",00:30 Hr,64 beats/min
same,"Respiration rate, Max",00:30 Hr,24 breaths/min
same,"Respiration rate, Mean ± SD",00:30 Hr,18.1 ± 2.73 breaths/min
same,"Respiration rate, Median",00:30 Hr,18.0 breaths/min
same,"Respiration rate, Min",00:30 Hr,13 breaths/min
same,"Systolic blood pressure, Max",00:30 Hr,155 mm of Hg
same,"Systolic blood pressure, Mean ± SD",00:30 Hr,135.9 ± 10.05 mm of Hg
same,"Systolic blood pressure, Median",00:30 Hr,133.5 mm of Hg
same,"Systolic blood pressure, Min",00:30 Hr,120 mm of Hg
same,Diastolic blood pressure Max,00:45 Hr,86 mm of Hg
same,Diastolic blood pressure Mean ± SD,00:45 Hr,76.4 ± 9.42 mm of Hg
same,Diastolic blood pressure Median,00:45 Hr,79.0 mm of Hg
same,Diastolic blood pressure Min,00:45 Hr,62 mm of Hg
same,"Pulse rate, Max",00:45 Hr,90 beats/min
same,"Pulse rate, Mean ± SD",00:45 Hr,76.0 ± 9.48 beats/min
same,"Pulse rate, Median",00:45 Hr,77.0 beats/min
same,"Pulse rate, Min",00:45 Hr,58 beats/min
same,"Respiration rate, Max",00:45 Hr,20 breaths/min
same,"Respiration rate, Mean ± SD",00:45 Hr,18.1 ± 1.91 breaths/min
same,"Respiration rate, Median",00:45 Hr,18.0 breaths/min
same,"Respiration rate, Min",00:45 Hr,15 breaths/min
same,"Systolic blood pressure, Max",00:45 Hr,160 mm of Hg
same,"Systolic blood pressure, Mean ± SD",00:45 Hr,138.3 ± 14.29 mm of Hg
same,"Systolic blood pressure, Median",00:45 Hr,137.0 mm of Hg
same,"Systolic blood pressure, Min",00:45 Hr,118 mm of Hg
same,Diastolic blood pressure Max,01:00 Hr,90 mm of Hg
same,Diastolic blood pressure Mean ± SD,01:00 Hr,74.5 ± 8.97 mm of Hg
same,Diastolic blood pressure Median,01:00 Hr,73.5 mm of Hg
same,Diastolic blood pressure Min,01:00 Hr,63 mm of Hg
same,"Pulse rate, Max",01:00 Hr,89 beats/min
same,"Pulse rate, Mean ± SD",01:00 Hr,75.3 ± 10.08 beats/min
same,"Pulse rate, Median",01:00 Hr,74.0 beats/min
same,"Pulse rate, Min",01:00 Hr,60 beats/min
same,"Respiration rate, Max",01:00 Hr,20 breaths/min
same,"Respiration rate, Mean ± SD",01:00 Hr,18.1 ± 1.73 breaths/min
same,"Respiration rate, Median",01:00 Hr,18.0 breaths/min
same,"Respiration rate, Min",01:00 Hr,15 breaths/min
same,"Systolic blood pressure, Max",01:00 Hr,160 mm of Hg
same,"Systolic blood pressure, Mean ± SD",01:00 Hr,134.4 ± 15.76 mm of Hg
same,"Systolic blood pressure, Median",01:00 Hr,133.0 mm of Hg
same,"Systolic blood pressure, Min",01:00 Hr,110 mm of Hg
same,Diastolic blood pressure Max,01:15 Hr,84 mm of Hg
same,Diastolic blood pressure Mean ± SD,01:15 Hr,74.6 ± 10.17 mm of Hg
same,Diastolic blood pressure Median,01:15 Hr,79.5 mm of Hg
same,Diastolic blood pressure Min,01:15 Hr,61 mm of Hg
same,"Pulse rate, Max",01:15 Hr,94 beats/min
same,"Pulse rate, Mean ± SD",01:15 Hr,73.4 ± 11.56 beats/min
same,"Pulse rate, Median",01:15 Hr,71.5 beats/min
same,"Pulse rate, Min",01:15 Hr,58 beats/min
same,"Respiration rate, Max",01:15 Hr,20 breaths/min
same,"Respiration rate, Mean ± SD",01:15 Hr,18.4 ± 2.20 breaths/min
same,"Respiration rate, Median",01:15 Hr,19.5 breaths/min
